Assay results published in paper PMC7377239, “Cardiovascular Effects of Polychlorinated Biphenyls and Their Major Metabolites” (Environmental Health Perspectives, 2020).
Where a name gives a salt, the structure may show the parent alone. Read-outs that look alike come from different tables or passages of the source.

Test system: iCell cardiomyocytes (human iPSC-derived cardiomyocytes)
Experiment: Intracellular Ca2+ flux / beating parameters in iCell cardiomyocytes (FLIPR tetra), 90 min or 24 h
Assay type: cell-based
Conditions: Homo sapiens, Cardiomyocyte, 0.00 µM = 100.00; for activity at 0.1 µM: 0.10 µM
How it was run: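 PODs were defined as the concentration crossing one SD of the vehicle-control means (0.5% DMSO) on four-parameter logistic fits of Ca2+ trace metrics (peak height, frequency, peak-spacing CV, decay/rise ratio). Traces came from 100 s, 8 Hz FLIPR reads at 37 °C on calcium-dye-loaded iCell cardiomyocytes. Before reading, cells were treated for 90 min or 24 h from 5× chemical plates spanning 0.05–500 µM, in triplicate.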

[1] = 1.5 h, 90min, read-out: cm.amp.avg.90min
[2] = 1.5 h, 90min, read-out: cm.amp.cv.90min
[3] = 1.5 h, 90min, read-out: cm.bpm.90min
[4] = 1.5 h, 90min, read-out: cm.decay.rise.90min
[5] = 1.5 h, 90min, read-out: cm.spacing.cv.90min
[6] = 24 h, 24hrs, read-out: cm.amp.avg.24hrs
[7] = 24 h, 24hrs, read-out: cm.amp.cv.24hrs
[8] = 24 h, 24hrs, read-out: cm.bpm.24hrs
[9] = 24 h, 24hrs, read-out: cm.decay.rise.24hrs
[10] = 24 h, 24hrs, read-out: cm.spacing.cv.24hrs

O=S(=O)(O)Oc1cc(Cl)c(-c2cc(Cl)ccc2Cl)cc1Cl [4-yl PCB 52 sulfate]
activity at 0.01 µM [1]: 103%
activity at 0.01 µM [2]: 105%
activity at 0.01 µM [3]: 102%
activity at 0.01 µM [4]: 101%
activity at 0.01 µM [5]: 100%
activity at 0.1 µM [1]: 113%
activity at 0.1 µM [2]: 86.3%
activity at 0.1 µM [3]: 103%
activity at 0.1 µM [4]: 90.8%
activity at 0.1 µM [5]: 101%
activity at 1 µM [1]: 102%
activity at 1 µM [2]: 104%
activity at 1 µM [3]: 100%
activity at 1 µM [4]: 97.7%
activity at 1 µM [5]: 97.4%
activity at 10 µM [1]: 98.4%
activity at 10 µM [2]: 103%
activity at 10 µM [3]: 97.8%
activity at 10 µM [4]: 97.1%
activity at 10 µM [5]: 104%
activity at 100 µM [1]: 0%
activity at 100 µM [2]: 0%
activity at 100 µM [3]: 0%
activity at 100 µM [4]: 0%
activity at 100 µM [5]: 0%
activity at 0.01 µM [6]: 128%
activity at 0.01 µM [7]: 103%
activity at 0.01 µM [8]: 97.4%
activity at 0.01 µM [9]: 104%
activity at 0.01 µM [10]: 107%
activity at 0.1 µM [6]: 135%
activity at 0.1 µM [7]: 70.5%
activity at 0.1 µM [8]: 94.5%
activity at 0.1 µM [9]: 109%
activity at 0.1 µM [10]: 110%
activity at 1 µM [6]: 147%
activity at 1 µM [7]: 69.4%
activity at 1 µM [8]: 95.5%
activity at 1 µM [9]: 104%
activity at 1 µM [10]: 91.9%
activity at 10 µM [6]: 167%
activity at 10 µM [7]: 68.9%
activity at 10 µM [8]: 92.6%
activity at 10 µM [9]: 98.8%
activity at 10 µM [10]: 111%
activity at 100 µM [6]: 0%
activity at 100 µM [7]: 0%
activity at 100 µM [8]: 0%
activity at 100 µM [9]: 0%
activity at 100 µM [10]: 0%
